# Experimental data taken from patent publication US20230064292A1, “METHODS OF TREATING PSMA-POSITIVE CANCER USING RADIONUCLIDE THERAPY” (priority 2020, published 2023).
# Tests used:
# [1] = Kidney dosimetry by SPECT/CT or SPECT/MRI in patients; assay type: in vivo, human
# Description: CTT1403 localization in various organs is accomplished by estimating dosimetry using SPECT/CT or SPECT/MRI imaging of the radioisotope component (using the gamma particle emission) of CTT1403, ^177Lu, up to 8 days after the first dose. […] Preclinical studies in rats with CTT1403 identified the kidneys as the dose limiting organ. Table 2, below, summarizes kidney dosimetry calculated from the first 15 patients enrolled in the study after receipt of escalating doses of CTT1403 and contrasts it with the predicted kidney exposure from rat studies. […] Preclinical studies in rats estimated expected kidney exposure of ˜5.2 Gy/GBq. […] CTT1403 may be sequestered in tumors and under exposing the kidney.
# [2] = system: prostate specific antigen (PSA); assay: PSA levels in patients after CTT1403 administration; assay type: in vivo, human
# Description: In order to investigate the pharmacokinetics of CTT1403, doses were administered by IV to fifteen subjects. The subjects each had histologically confirmed prostate adenocarcinoma that was metastatic and castration resistant (mCRPA). Subjects with de novo small cell carcinoma of the prostate were excluded. The subjects further had at least three metastatic foci avid for PSMA-specific PET agent CTT1057 or 68Ga-PSMA-11 uptake. PSMA avidity was defined as SUVmax>mediastinal blood pool. The subjects had received docetaxel, were ineligible for docetaxel, or had refused docetaxel. They all further had progression by the PCWG3 criteria during or after treatment with abiraterone, enzalutamide, and/or apalutamide, and had serum testosterone<50 ng/dL. Subjects without a history of bilateral orchiectomy were required to remain on a luteinizing hormone-releasing hormone (LHRH) analog during the course of the protocol therapy.
# Reduction in prostate specific antigen (PSA) at least 12 weeks after therapeutic administration is generally thought to be predictive of therapeutic efficacy. PSA levels at screening, at CTT1403 administration and at specified time points after CTT1403 administration are shown for selected patients enrolled in the trial, including patients still actively under observation (Patients 13, 14, 15). Reduction in PSA compared to Cycle 1, Day 1 has been observed in 4 patients to date: Patient 002 (75% maximum reduction), Patient 4 (40% maximum reduction), Patient 13 (14% reduction to date) and Patient 15 (9% reduction to date).
# [3] = system: PSMA-expressing PC3-PIP cells; assay: Cellular uptake and internalization in PSMA-expressing PC3-PIP cells; assay type: cell-based
# Description: The PSMA binding scaffold of PSMA binds irreversibly to the extracellular enzymatic domain of PSMA leading to rapid internalization by PSMA-expressing cancer cells. Tumor cell uptake of CTT1403 is ˜84% after just 2½ hours (FIG. 1), compared to less than 40% tumor cell uptake of ^177Lu-PSMA-617 (structure shown below), in PSMA-expressing PC3-PIP cells.
# Given that 99% of cell bound CTT1403 is internalized, compared to just 15% of ^177Lu-PSMA-617, targeting by CTT1403 is expected to confer a significant therapeutic advantage. This greater uptake will allow treatment of smaller tumors for a longer time. Both irreversible binding and cellular internalization increases exposure of target tissue to the therapeutic agent. Greater accumulation in the target tissue will permit a lower efficacious dose and/or dosing frequency, thus reducing a patient's total clinical exposure to the radionuclide and improving the therapeutic index.
# [4] = Physical examination and monitoring for adverse events in the clinical trial; assay type: in vivo, human; details: to date
# [5] = patient 1, injected activity 0.73 GBq (19.6 mCi)
# [6] = patient 2, injected activity 1.50 GBq (40.5 mCi)
# [7] = patient 3, injected activity 2.03 GBq (54.8 mCi)
# [8] = patient 4, injected activity 3.00 GBq (81.1 mCi)
# [9] = patient 5, injected activity 2.95 GBq (79.8 mCi)
# [10] = patient 6, injected activity 2.98 GBq (80.5 mCi)
# [11] = patient 7, injected activity 4.48 GBq (121.1 mCi)
# [12] = patient 8, injected activity 4.52 GBq (122.2 mCi)
# [13] = patient 9, injected activity 3.53 GBq (95.5 mCi)
# [14] = patient 10, injected activity 4.48 GBq (121.2 mCi)
# [15] = patient 11, injected activity 5.66 GBq (153.0 mCi)
# [16] = patient 12, injected activity 5.99 GBq (162.0 mCi)
# [17] = patient 13, injected activity 5.99 GBq (162.0 mCi)
# [18] = patient 14, injected activity 7.98 GBq (215.7 mCi)
# [19] = patient 15, injected activity 7.77 GBq (210.0 mCi)
structure (smiles),measurement,setting,value
O=C(O)CC[C@H](NP(=O)(O)OCCC[C@H](NC(=O)CC[C@H](NC(=O)CCCCCNC(=O)CCC(NC(=O)CCOCCOCCOCCOCCNC(=O)CCC(=O)N1Cc2ccccc2-c2c(nnn2CCCNC(=O)CN2CCN3CCN4CCN(CC2)CC(=O)[O][177Lu]([O]C(=O)C3)[O]C(=O)C4)-c2ccccc21)C(=O)NC(CCCCNC(=O)CCCc1ccc(I)cc1)C(=O)O)C(=O)O)C(=O)O)C(=O)O (stereo partly shown) [CTT1403],"Kidney dose, Dose Gy/GBq",[1]; CTT1403 (7.5 GBq +/− 10%),0.689 Gy/GBq
same,"Kidney dose, Mean Dose (Gy)",[1]; CTT1403 (7.5 GBq +/− 10%),4.895 Gy
same,Kidney dosimetry calculated from the first 15 patients,"[1]; first 15 patients enrolled, escalating doses",0.687 Gy/GBq
same,factor by which clinical kidney dosimetry is lower than predicted by rat studies,[1]; first 15 patients vs rat prediction,~10
same,absorbed dose (Gy) - L. kidney,[1]; [5],0.441 Gy
same,absorbed dose (Gy) - R. kidney,[1]; [5],0.430 Gy
same,absorbed dose per GBq (Gy/GBq) - L. kidney,[1]; [5],0.608 Gy/GBq
same,absorbed dose per GBq (Gy/GBq) - R. kidney,[1]; [5],0.593 Gy/GBq
same,absorbed dose (Gy) - L. kidney,[1]; [6],0.915 Gy
same,absorbed dose (Gy) - R. kidney,[1]; [6],0.876 Gy
same,absorbed dose per GBq (Gy/GBq) - L. kidney,[1]; [6],0.610 Gy/GBq
same,absorbed dose per GBq (Gy/GBq) - R. kidney,[1]; [6],0.584 Gy/GBq
same,absorbed dose (Gy) - L. kidney,[1]; [7],1.54 Gy
same,absorbed dose (Gy) - R. kidney,[1]; [7],2.07 Gy
same,absorbed dose per GBq (Gy/GBq) - L. kidney,[1]; [7],0.757 Gy/GBq
same,absorbed dose per GBq (Gy/GBq) - R. kidney,[1]; [7],1.020 Gy/GBq
same,absorbed dose (Gy) - L. kidney,[1]; [8],1.97 Gy
same,absorbed dose (Gy) - R. kidney,[1]; [8],1.70 Gy
same,absorbed dose per GBq (Gy/GBq) - L. kidney,[1]; [8],0.655 Gy/GBq
same,absorbed dose per GBq (Gy/GBq) - R. kidney,[1]; [8],0.565 Gy/GBq
same,absorbed dose (Gy) - L. kidney,[1]; [9],4.41 Gy
same,absorbed dose (Gy) - R. kidney,[1]; [9],4.84 Gy
same,absorbed dose per GBq (Gy/GBq) - L. kidney,[1]; [9],1.494 Gy/GBq
same,absorbed dose per GBq (Gy/GBq) - R. kidney,[1]; [9],1.638 Gy/GBq
same,absorbed dose (Gy) - L. kidney,[1]; [10],2.75 Gy
same,absorbed dose (Gy) - R. kidney,[1]; [10],2.65 Gy
same,absorbed dose per GBq (Gy/GBq) - L. kidney,[1]; [10],0.922 Gy/GBq
same,absorbed dose per GBq (Gy/GBq) - R. kidney,[1]; [10],0.889 Gy/GBq
same,absorbed dose (Gy) - L. kidney,[1]; [11],2.54 Gy
same,absorbed dose (Gy) - R. kidney,[1]; [11],2.83 Gy
same,absorbed dose per GBq (Gy/GBq) - L. kidney,[1]; [11],0.567 Gy/GBq
same,absorbed dose per GBq (Gy/GBq) - R. kidney,[1]; [11],0.632 Gy/GBq
same,absorbed dose (Gy) - L. kidney,[1]; [12],3.45 Gy
same,absorbed dose (Gy) - R. kidney,[1]; [12],3.54 Gy
same,absorbed dose per GBq (Gy/GBq) - L. kidney,[1]; [12],0.764 Gy/GBq
same,absorbed dose per GBq (Gy/GBq) - R. kidney,[1]; [12],0.784 Gy/GBq
same,absorbed dose (Gy) - L. kidney,[1]; [13],1.71 Gy
same,absorbed dose (Gy) - R. kidney,[1]; [13],1.85 Gy
same,absorbed dose per GBq (Gy/GBq) - L. kidney,[1]; [13],0.484 Gy/GBq
same,absorbed dose per GBq (Gy/GBq) - R. kidney,[1]; [13],0.522 Gy/GBq
same,absorbed dose (Gy) - L. kidney,[1]; [14],2.26 Gy
same,absorbed dose (Gy) - R. kidney,[1]; [14],2.75 Gy
same,absorbed dose per GBq (Gy/GBq) - L. kidney,[1]; [14],0.505 Gy/GBq
same,absorbed dose per GBq (Gy/GBq) - R. kidney,[1]; [14],0.612 Gy/GBq
same,absorbed dose (Gy) - L. kidney,[1]; [15],3.32 Gy
same,absorbed dose (Gy) - R. kidney,[1]; [15],3.08 Gy
same,absorbed dose per GBq (Gy/GBq) - L. kidney,[1]; [15],0.587 Gy/GBq
same,absorbed dose per GBq (Gy/GBq) - R. kidney,[1]; [15],0.543 Gy/GBq
same,absorbed dose (Gy) - L. kidney,[1]; [16],3.15 Gy
same,absorbed dose (Gy) - R. kidney,[1]; [16],2.81 Gy
same,absorbed dose per GBq (Gy/GBq) - L. kidney,[1]; [16],0.525 Gy/GBq
same,absorbed dose per GBq (Gy/GBq) - R. kidney,[1]; [16],0.469 Gy/GBq
same,absorbed dose (Gy) - L. kidney,[1]; [17],2.65 Gy
same,absorbed dose (Gy) - R. kidney,[1]; [17],2.50 Gy
same,absorbed dose per GBq (Gy/GBq) - L. kidney,[1]; [17],0.443 Gy/GBq
same,absorbed dose per GBq (Gy/GBq) - R. kidney,[1]; [17],0.417 Gy/GBq
same,absorbed dose (Gy) - L. kidney,[1]; [18],5.53 Gy
same,absorbed dose (Gy) - R. kidney,[1]; [18],5.41 Gy
same,absorbed dose per GBq (Gy/GBq) - L. kidney,[1]; [18],0.693 Gy/GBq
same,absorbed dose per GBq (Gy/GBq) - R. kidney,[1]; [18],0.678 Gy/GBq
same,absorbed dose (Gy) - L. kidney,[1]; [19],4.89 Gy
same,absorbed dose (Gy) - R. kidney,[1]; [19],3.75 Gy
same,absorbed dose per GBq (Gy/GBq) - L. kidney,[1]; [19],0.629 Gy/GBq
same,absorbed dose per GBq (Gy/GBq) - R. kidney,[1]; [19],0.482 Gy/GBq
same,"Reduction in PSA compared to Cycle 1, Day 1","[2]; Patient 002, maximum reduction",75%
same,"Reduction in PSA compared to Cycle 1, Day 1","[2]; Patient 4, maximum reduction",40%
same,"Reduction in PSA compared to Cycle 1, Day 1","[2]; Patient 13, reduction to date",14%
same,"Reduction in PSA compared to Cycle 1, Day 1","[2]; Patient 15, reduction to date",9%
same,PSA Result,"[2]; patient 2 (1.50 GBq), 4 Weeks Post Treatment",405.6 µg/L
same,PSA Result,"[2]; patient 2 (1.50 GBq), 8 Weeks Post Treatment",167.013 µg/L
same,PSA Result,"[2]; patient 2 (1.50 GBq), 12 Weeks Post Treatment",45.716 µg/L
same,PSA Result,"[2]; patient 2 (1.50 GBq), Cycle 1-Day 1",162.353 µg/L
same,PSA Result,"[2]; patient 2 (1.50 GBq), Cycle 1-Day 22",185.132 µg/L
same,PSA Result,"[2]; patient 2 (1.50 GBq), Cycle 2-Day 1",194.320 µg/L
same,PSA Result,"[2]; patient 2 (1.50 GBq), End of Treatment",215.919 µg/L
same,PSA Result,"[2]; patient 4 (3.00 GBq), 8 Weeks Post Treatment",41.80 µg/L
same,PSA Result,"[2]; patient 4 (3.00 GBq), Cycle 1-Day 1",65.684 µg/L
same,PSA Result,"[2]; patient 4 (3.00 GBq), Cycle 1-Day 22",77.876 µg/L
same,PSA Result,"[2]; patient 4 (3.00 GBq), End of Treatment",115.658 µg/L
same,PSA Result,"[2]; patient 4 (3.00 GBq), Screening (before dosing)",70.228 µg/L
same,PSA Result,"[2]; patient 13 (5.99 GBq), Cycle 1-Day 1",146.133 µg/L
same,PSA Result,"[2]; patient 13 (5.99 GBq), Cycle 1-Day 22",148.217 µg/L
same,PSA Result,"[2]; patient 13 (5.99 GBq), Cycle 2-Day 1",135.620 µg/L
same,PSA Result,"[2]; patient 13 (5.99 GBq), Cycle 2-Day 22",126.392 µg/L
same,PSA Result,"[2]; patient 13 (5.99 GBq), Screening (before dosing)",166.793 µg/L
same,PSA Result,"[2]; patient 14 (7.98 GBq), Cycle 1-Day 1",22.642 µg/L
same,PSA Result,"[2]; patient 14 (7.98 GBq), Cycle 1-Day 22",142 µg/L
same,PSA Result,"[2]; patient 14 (7.98 GBq), Screening (before dosing)",16.310 µg/L
same,PSA Result,"[2]; patient 15 (7.77 GBq), Cycle 1-Day 1",595.739 µg/L
same,PSA Result,"[2]; patient 15 (7.77 GBq), Cycle 1-Day 22",543.5 µg/L
same,PSA Result,"[2]; patient 15 (7.77 GBq), Screening (before dosing)",410.363 µg/L
same,cell bound agent that is internalized,[3]; PSMA-expressing PC3-PIP cells,99%
same,Tumor cell uptake,"[3]; after 2½ hours, PSMA-expressing PC3-PIP cells (FIG. 1)",~84%
same,serious adverse events after receipt of CTT1403,[4],no serious adverse events
